In patent US20220135622A1, “ANTIBACTERIAL PEPTIDES AND METHODS OF USE” (priority 2019, published 2022):
In brackets after ≈: the same amount, converted by molar mass. Like-named read-outs stand apart in the source and are kept apart here. Square brackets hold non-standard residues; d marks the D form. Peptide text beside a SMILES is read from it. Bip = N[C@@H](Cc1ccc(-c2ccccc2)cc1)C(=O)O; hPhe = N[C@@H](CCc1ccccc1)C(=O)O; Ahp(2) = CCCCC[C@H](N)C(=O)O; NMeM = CN[C@@H](CCSC)C(=O)O; NMeA = CN[C@@H](C)C(=O)O; Dap = NC[C@H](N)C(=O)O

What was measured:
E. coli BW25113 = format: cell-based, Escherichia coli
Outline: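 Growth inhibition: log-phase cells (OD600 ~0.001), peptides in 2-fold series up to 400–800 μM in MHB II, EDTA 0.5 mM (E. coli) or 0.125 mM (USA300), 4 h at 37 °C, ATP luminescence readout. MICs: inoculum at OD600 ~0.0002, with or without EDTA, 20 h at 37 °C, OD600 endpoint.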

K. pneumoniae = format: cell-based, Klebsiella pneumoniae
Protocol: (§1) Bacterial growth conditions. LB or Mueller Hinton II cation-adjusted broth (MHB II, BBL 212322) was prepared according to manufacturer's instructions and supplemented with arabinose at 0.02% for overnight growth or at indicated concentrations in the description of the figures. Bacterial cultures were grown at 37° C. When appropriate, media was supplemented with kanamycin (50 μg/mL), carbenicillin (50 μg/mL), chloramphenicol (12.5 or 25 μg/mL), hygromycin (200 μg/mL), and/or gentamicin (10 μg/mL).
(§2) Peptide sensitivity and MIC assays. Lyophilized peptides (Smartox Biotechnology, CPC Scientific. ABclonal) were solubilized to 10 mM in Tris buffer, pH 8, prior to making a 2-fold dilution series in MHBII cation adjusted broth with highest final assay concentration of 400-800 μM. Bacteria were grown to log phase and added to final OD600˜0.001. The final EDTA concentration was 0.5 mM for E. coli strains and 0.125 mM for USA300. The final volume of 10 μL/well in a 384 well black, clear bottom plate (Corning) was spun <1 min at <250×g and then incubated at 37° C. After 4 h, an equal volume (10 μL) of BacTiter-Glo™ (Promega) was added to each well and luminescence was read after 5 min on an EnVision plate reader (PerkinElmer). To measure the minimal inhibitory concentrations (MICs), bacteria from fresh overnight plates or log phase cultures were diluted with or without EDTA and peptides as described above to final OD600˜0.0002. Plates were incubated at 37° C. for 20 h before measuring OD600 with an EnVision plate reader.

A. baumannii = format: cell-based, Acinetobacter baumannii
Protocol: as §1, §2

P. aeruginosa = format: cell-based, Pseudomonas aeruginosa
Protocol: as §1, §2

| Compound | MIC E. coli BW25113 (E. coli BW25113; BW25113) [µM] | MIC K. pneumoniae (K. pneumoniae) [µM] | MIC A. baumannii (A. baumannii) [µM] | MIC R. aeruginosa (P. aeruginosa) [µM] | MIC E. coli BW25113 (E. coli BW25113; Table 8) [µM] | MIC K. pneumoniae (K. pneumoniae; Table 8) [µM] | MIC A. baumannii (A. baumannii; Table 8) [µM] | MIC R. aeruginosa (P. aeruginosa; Table 8) [µM] |
| --- | --- | --- | --- | --- | --- | --- | --- | --- |
| CSCC[C@@H](C(=O)N[C@H](C(=O)N(C)[C@@H](C)C(=O)N[C@@H](CCCNC(=N)N)C(=O)N[C@@H](CCCNC(=N)N)C(=O)N[C@@H](Cc1c[nH]c2ccccc12)C(=O)N[C@@H](CC(C)C)C(=O)N[C@@H](C)C(=O)N[C@@H](CCCCN)C(=O)N[C@@H](CCCNC(=N)N)C(=O)NCC(=O)N[C@@H](CC(C)C)C(N)=O)[C@@H](C)O)N(C)C(=O)[C@@H]1CCCN1C(=O)[C@H](CCCNC(=N)N)NC(C)=O [compound 216] (Ac-RP[NMeM]T[NMeA]RRWLAKRGL-NH2) | 100.0 (≈ 178 µg/mL) | >400.0 | >400.0 | >400.0 |  |  |  |  |
| Ac-RPMTWRRFLAKRGL-NH2 [compound 203] | 200.0 | >400.0 | 400.0 | >400.0 |  |  |  |  |
| CSCC[C@H](NC(=O)[C@@H]1CCCN1C(=O)[C@H](CCCNC(=N)N)NC(C)=O)C(=O)N[C@H](C(=O)N[C@@H](C)C(=O)N[C@@H](CCCNC(=N)N)C(=O)N[C@@H](CCCNC(=N)N)C(=O)N[C@@H](Cc1ccc(-c2ccccc2)cc1)C(=O)N[C@@H](CC(C)C)C(=O)N[C@@H](CCC(=O)O)C(=O)N[C@@H](CCCCN)C(=O)N[C@@H](Cc1c[nH]c2ccccc12)C(=O)NCC(=O)N[C@@H](CC(C)C)C(N)=O)[C@@H](C)O [compound 207] (Ac-RPMTARR[Bip]LEKWGL-NH2) |  |  |  |  | 100.0 (≈ 188 µg/mL) | 100.0 (≈ 188 µg/mL) | 100.0 (≈ 188 µg/mL) | 100.0 (≈ 188 µg/mL) |
| CSCC[C@H](NC(=O)[C@H](CN)NC(=O)[C@H](CCSC)NC(=O)[C@@H]1CCCN1C(=O)[C@H](Cc1ccc(O)cc1)NC(C)=O)C(=O)N[C@@H](CCCNC(=N)N)C(=O)N[C@@H](CCCNC(=N)N)C(=O)N[C@@H](Cc1ccccc1)C(=O)N[C@@H](CC(C)C)C(=O)N[C@@H](CCC(=O)O)C(=O)N[C@@H](CCCCN)C(=O)N[C@@H](Cc1c[nH]c2ccccc12)C(=O)NCC(=O)N[C@@H](CC(C)C)C(=O)N[C@@H](CC(C)C)C(=O)N[C@@H](CCCNC(=N)N)C(N)=O [compound 78] (Ac-YPM[Dap]MRRFLEKWGLLR-NH2) |  |  |  |  | 12.5 (≈ 26.5 µg/mL) | 25.0 (≈ 53.1 µg/mL) | 25.0 (≈ 53.1 µg/mL) | 100.0 (≈ 212 µg/mL) |
| CCCCC[C@H](NC(=O)[C@@H](NC(=O)[C@H](CCSC)NC(=O)[C@@H]1CCCN1C(=O)[C@H](CCCNC(=N)N)NC(C)=O)[C@@H](C)O)C(=O)N[C@@H](CCCNC(=N)N)C(=O)N[C@@H](CCCNC(=N)N)C(=O)N[C@@H](Cc1c[nH]c2ccccc12)C(=O)N[C@@H](CC(C)C)C(=O)N[C@@H](CCC(=O)O)C(=O)N[C@@H](CCCCN)C(=O)N[C@@H](CCCNC(=N)N)C(=O)NCC(=O)N[C@@H](CC(C)C)C(N)=O [compound 212] (Ac-RPMT[Ahp(2)]RRWLEKRGL-NH2) |  |  |  |  | 100.0 (≈ 187 µg/mL) | >400.0 | 200.0 (≈ 373 µg/mL) | >400.0 |
| CSCC[C@H](NC(=O)[C@@H]1CCCN1C(=O)[C@H](Cc1ccc(O)cc1)NC(C)=O)C(=O)N[C@H](C(=O)N[C@@H](C)C(=O)N[C@@H](CCCNC(=N)N)C(=O)N[C@@H](CCCNC(=N)N)C(=O)N[C@@H](CCc1ccccc1)C(=O)N[C@@H](CC(C)C)C(=O)N[C@@H](CCC(=O)O)C(=O)N[C@@H](CCCCN)C(=O)N[C@@H](Cc1c[nH]c2ccccc12)C(=O)NCC(=O)N[C@@H](CC(C)C)C(=O)N[C@@H](CC(C)C)C(=O)N[C@@H](CCCNC(=N)N)C(N)=O)[C@@H](C)O [compound 84] (Ac-YPMTARR[hPhe]LEKWGLLR-NH2) |  |  |  |  | 50.0 (≈ 105 µg/mL) | 50.0 (≈ 105 µg/mL) | 25.0 (≈ 52.3 µg/mL) | 200.0 (≈ 419 µg/mL) |
| Ac-RPMTARRFLAKRGL-NH2 [compound 210] |  |  |  |  | 200.0 | >400.0 | >400.0 | >400.0 |
| Ac-YPMTFRRFLAKWGLLR-NH2 [compound 87] |  |  |  |  | 100.0 | 25.0 | 25.0 | 50.0 |
| Ac-RPMTFRRFLEKWGL-NH2 [compound 73] |  |  |  |  | 50 | 200 | 50 | 800 |
| CSCC[C@H](NC(=O)[C@@H]1CCCN1C(=O)[C@H](Cc1ccc(O)cc1)NC(C)=O)C(=O)N[C@H](C(=O)N[C@H](C)C(=O)N[C@@H](CCCNC(=N)N)C(=O)N[C@@H](CCCNC(=N)N)C(=O)N[C@@H](Cc1ccccc1)C(=O)N[C@@H](CC(C)C)C(=O)N[C@@H](CCC(=O)O)C(=O)N[C@@H](CCCCN)C(=O)N[C@@H](Cc1c[nH]c2ccccc12)C(=O)NCC(=O)N[C@@H](CC(C)C)C(=O)N[C@@H](CC(C)C)C(=O)N[C@@H](CCCNC(=N)N)C(N)=O)[C@@H](C)O [compound 92] (Ac-YPMT[dA]RRFLEKWGLLR-NH2) |  |  |  |  | 200.0 (≈ 416 µg/mL) | >400.0 | 200.0 (≈ 416 µg/mL) | >400.0 |
| CSCC[C@H](NC(=O)[C@@H]1CCCN1C(=O)[C@H](Cc1ccc(O)cc1)NC(C)=O)C(=O)N[C@@H](CN)C(=O)N[C@@H](Cc1ccccc1)C(=O)N[C@@H](CCCNC(=N)N)C(=O)N[C@@H](CCCNC(=N)N)C(=O)N[C@@H](Cc1ccccc1)C(=O)N[C@@H](CC(C)C)C(=O)N[C@@H](CCC(=O)O)C(=O)N[C@@H](CCCCN)C(=O)N[C@@H](Cc1c[nH]c2ccccc12)C(=O)NCC(=O)N[C@@H](CC(C)C)C(=O)N[C@@H](CC(C)C)C(=O)N[C@@H](CCCNC(=N)N)C(N)=O [compound 69] (Ac-YPM[Dap]FRRFLEKWGLLR-NH2) |  |  |  |  | 50 (≈ 107 µg/mL) | 100 (≈ 214 µg/mL) | 12.5 (≈ 26.7 µg/mL) | 200 (≈ 428 µg/mL) |
| Ac-RPMTSRRWLAKRGL-NH2 [compound 214] | 100.0 | >400.0 | >400.0 | >400.0 |  |  |  |  |
| CSCC[C@H](NC(=O)[C@@H]1CCCN1C(=O)[C@H](Cc1ccc(O)cc1)NC(C)=O)C(=O)N[C@H](C(=O)N[C@@H](C)C(=O)N[C@@H](CCCNC(=N)N)C(=O)N[C@@H](CCCNC(=N)N)C(=O)N[C@@H](Cc1ccc(-c2ccccc2)cc1)C(=O)N[C@@H](CC(C)C)C(=O)N[C@@H](C)C(=O)N[C@@H](CCCCN)C(=O)N[C@@H](Cc1c[nH]c2ccccc12)C(=O)NCC(=O)N[C@@H](CC(C)C)C(=O)N[C@@H](CC(C)C)C(=O)N[C@@H](CCCNC(=N)N)C(N)=O)[C@@H](C)O [compound 88] (Ac-YPMTARR[Bip]LAKWGLLR-NH2) |  |  |  |  | 100.0 (≈ 210 µg/mL) | 25.0 (≈ 52.4 µg/mL) | 12.5 (≈ 26.2 µg/mL) | 25.0 (≈ 52.4 µg/mL) |
| CSCC[C@H](NC(=O)[C@H](CN)NC(=O)[C@H](CCSC)NC(=O)[C@@H]1CCCN1C(=O)[C@H](Cc1ccc(O)cc1)NC(C)=O)C(=O)N[C@@H](CCCNC(=N)N)C(=O)N[C@@H](CCCNC(=N)N)C(=O)N[C@@H](Cc1c[nH]c2ccccc12)C(=O)N[C@@H](CC(C)C)C(=O)N[C@@H](CCC(=O)O)C(=O)N[C@@H](CCCCN)C(=O)N[C@@H](Cc1c[nH]c2ccccc12)C(=O)NCC(=O)N[C@@H](CC(C)C)C(=O)N[C@@H](CC(C)C)C(=O)N[C@@H](CCCNC(=N)N)C(N)=O [compound 89] (Ac-YPM[Dap]MRRWLEKWGLLR-NH2) | 25.0 (≈ 54.1 µg/mL) | 25.0 (≈ 54.1 µg/mL) | 25.0 (≈ 54.1 µg/mL) | 100.0 (≈ 216 µg/mL) |  |  |  |  |
| Ac-RPMTWRRFLAKYGL-NH2 [compound 200] | 50.0 | 200.0 | 50.0 | 50.0 |  |  |  |  |
| Ac-RPMTMRRFLEKWGL-NH2 [compound 206] |  |  |  |  | 200.0 | 200.0 | 200.0 | 200.0 |
